Patent US12030903B2, “Antiviral compounds” (Gilead Sciences, Inc., priority 2020, dated 2024)

Legend:
[1] = Huh-7 CC50 (CellTiter Glo viability); assay type: cell-based, Human; settings: human, Huh7 hepatocarcinoma cells
Method: Human hepatocarcinoma 7 (Huh7) cells were maintained in 10% FCS-containing complete DMEM. On day of assay, cells were trypsinized with 0.1% Trypsin-EDTA, washed and cultured in triplicate at 1-2×10^4 cells/well in 96-well plates with compounds dispensed at graded doses (Hewlett-Packard D300 Digital Dispenser). All wells were normalized to 0.25% DMSO. After 48 hours, CellTiter Glo (Promega) was added and incubated for 10 minutes at room temp before reading on a luminometer. % viability curves were calculated against no compound and no cell control wells. CC50 values were determined using Prism Graphpad software.

[2] = moDC CC50 (CellTiter Glo viability); assay type: cell-based, Human; settings: human, uninfected moDCs
Method: Human monocyte-derived dendritic cells (moDCs) were derived from CD14+ monocytes (AllCells) cultured in Human Mo-DC Differentiation medium containing GM-CSF and IL-4 (Miltenyi Biotec). On day 7, moDCs were harvested by mechanical disruption, washed and cultured in triplicate at […] cells/well in 96-well plates with compounds dispensed at graded doses (Hewlett-Packard D300 Digital Dispenser). All wells were normalized to 0.25% DMSO. After 48 hours, CellTiter Glo (Promega) was added and incubated for 10 minutes at room temp before reading on a luminometer. % viability curves were calculated against no compound and no cell control wells. CC50 values were determined using Prism Graphpad software.

[3] = HEp-2 CC50 (cytotoxicity in uninfected HEp-2 cells); assay type: cell-based; settings: human, CellTiter Glo
Method: Instead, an uninfected cell mixture at the same density is added at 20 uL/well to plates containing prediluted compounds, also at 100 nL/sample. Assay plates are then incubated for 4 days followed by a cell viability test using the same CellTiter Glo reagent addition and measurement of luminescent readouts. Untreated cell and cells treated at 2 μM puromycin (Sigma, St. Louis, MO) serve as 100% and 0% cell viability control, respectively.

[4] = system: Dengue 2, New Guinea strain (NGC); assay: DENV-2 moDC EC50 (qPCR of viral RNA in infected moDCs); assay type: cell-based, New Guinea strain (NGC); human moDCs; settings: Dengue virus, human moDCs infected with Dengue 2 NGC, MOI=0.1, 48 hours
Method: Example 82. DENV-2 moDC EC50
Human monocyte-derived dendritic cells (moDCs) were derived from CD14+ monocytes (AllCells) cultured in Human Mo-DC Differentiation medium containing GM-CSF and IL-4 (Miltenyi Biotec). On day 7, moDCs were harvested by mechanical disruption, washed and suspended in serum-free RPMI. moDCs were infected with Vero-derived Dengue 2, New Guinea strain (NGC) at a MOI=0.1 for two hours in serum-free RPMI with gentle agitation at 37° C. Cells were washed and resuspended in 10% serum-containing RPMI (Gibco, supplemented with sodium pyruvate, NEAA, Penicillin-Streptomycin). […] were plated in triplicate in 96-well plates with compounds dispensed at graded doses (Hewlett-Packard D300 Digital Dispenser). All wells were normalized to 0.25% DMSO. At 48 hours, cells were washed with 1×PBS and all supernatants removed. Total RNA was extracted using RNEasy 96 plates (Qiagen) and used to generate first-strand cDNA using XLT cDNA 5× Supermix (QuantaBio). cDNA was used as a template in a Taqman qPCR duplex reaction specific to DENV2 viral and GAPDH gene expression. EC50 values were determined using Prism Graphpad software, with normalization to a positive control and no compound negative control wells.

RSV strain A2 = assay: RSV HEp-2 EC50 (infectious cytopathic cell protection assay); assay type: cell-based, RSV strain A2; HEp-2 cells; settings: human respiratory syncytial virus, HEp-2, 96 h, read-out: RSV Hep-2 EC50
Method: Example 86. RSV HEp-2 EC50
Antiviral activity against RSV is determined using an infectious cytopathic cell protection assay in HEp-2 cells. In this assay, compounds inhibiting viral infection and/or replication produce a cytoprotective effect against the virus-induced cell killing that can be quantified using a cell viability reagent. The techniques used here are novel adaptations of methods described in published literature (Chapman et al., Antimicrob Agents Chemother. 2007, 51(9):3346-53.)
HEp-2 cells are obtained from ATCC (Manassas, VI) and maintained in MEM media supplemented with 10% fetal bovine serum and penicillin/streptomycin. Cells are passaged twice a week and kept at subconfluent stage. Commercial stock of RSV strain A2 (Advanced Biotechnologies, Columbia, MD) is titered before compound testing to determine the appropriate dilution of the virus stock that generates desirable cytopathic effect in HEp-2 cells.
For antiviral tests, HEp-2 cells are grown in large cell culture flasks to near confluency but not fully so. The compounds to be tested are prediluted in DMSO in 384-well compound dilution plates, either in an 8 or 40 sample per plate standardized dose response format. 3-fold serial dilution increments of each test compound are prepared in the plates and test samples are transferred via acoustic transfer apparatus (Echo, Labcyte) at 100 nL per well into cell culture assay 384-well plates. Each compound dilution is transferred in single or quadruplicate samples into dry assay plates, which are stored until assay is ready to go. The positive and negative controls are laid out in opposite on ends of the plate in vertical blocks (1 column).
Subsequently, an infectious mixture is prepared using an appropriate dilution of virus stock previously determined by titration with cells at a density of 50,000/mL and 20 uL/well is added to test plates w/compounds via automation (uFlow, Biotek). Each plate includes negative and positive controls (16 replicates each) to create 0% and 100% virus inhibition standards, respectively. Following the infection with RSV, testing plates are incubated for 4 days in a 37° C. cell culture incubator. After the incubation, a cell viability reagent, Cell TiterGlo (Promega, Madison, WI) is added to the assay plates, which are incubated briefly, and a luminescent readout is measured (Envision, Perkin Elmer) in all the assay plates. The RSV-induced cytopathic effect, percentage inhibition, is determined from the levels of remaining cell viability. […] Various potent anti-RSV tool compounds are used as positive controls for antiviral activity.

[5] = system: Dengue serotype 2 New Guinea C (NGC) strain; assay: DENV-2 Huh-7 EC50 (qPCR of viral RNA in infected Huh7 cells); assay type: cell-based; settings: Dengue virus, DENV2, Huh-7, Huh7 cells infected with Dengue serotype 2 NGC, MOI=0.1, 48 hours
Method: Huh7 (Human hepatocarcinoma 7) cells were maintained in 10% FCS-containing DMEM complete media. On the day of the assay, cells were trypsinized (0.1% Trypsin-EDTA), washed and infected for 2 hours in serum-free DMEM with Dengue serotype 2 New Guinea C (NGC) strain at MOI=0.1 with gentle agitation at 37° C. After 2 hours, cells were washed with serum-free media and suspended in 10% FCS-containing DMEM (Gibco, supplemented with sodium pyruvate, NEAA, Penicillin-Streptomycin). 10^5 cells were plated in triplicate in 96-well plates with compounds dispensed at graded doses (Hewlett-Packard D300 Digital Dispenser). All wells were normalized to 0.25% DMSO. At 48 hours, cells were washed with 1× PBS and all supernatants removed. Total RNA was extracted using RNEasy 96 plates (Qiagen) and used to generate first-strand cDNA using XLT cDNA 5× Supermix (QuantaBio). cDNA was used as a template in a Taqman qPCR duplex reaction specific to DENV2 viral and GAPDH gene expression. EC50 values were determined using Prism Graphpad software, with normalization to a positive control and no compound negative control wells.

SMILES	CC50 at 48 h [1] [µM]	CC50 at 48 h [2] [µM]	CC50 at 4 days [3] [µM]	EC50 [4] [µM]	EC50 (RSV strain A2) [µM]	EC50 [5] [µM]
C[C@H](NP(=O)(OC[C@@]1(CF)O[C@@H](c2ccc3c(N)ncnn23)[C@H](O)[C@@H]1O)Oc1ccccc1)C(=O)OCCC(C)(C)C (stereo partly drawn) [Example 4, 3,3-dimethylbutyl ((((2R,3S,4R,5S)-5-(4-aminopyrrolo[2,1-f][1,2,4]triazin-7-yl)-2-(fluoromethyl)-3,4-dihydroxytetrahydrofuran-2-yl)methoxy)(phenoxy)phosphoryl)-L-alaninate]	17.8	4.78	> 100	0.058	0.029	0.132
CCC(C)(C)COC(=O)[C@H](C)NP(=O)(OC[C@@]1(CF)O[C@@H](c2ccc3c(N)ncnn23)[C@H](O)[C@@H]1O)Oc1ccccc1 (stereo partly drawn) [Example 7, 2,2-dimethylbutyl ((((2R,3S,4R,5S)-5-(4-aminopyrrolo[2,1-f][1,2,4]triazin-7-yl)-2-(fluoromethyl)-3,4-dihydroxytetrahydrofuran-2-yl)methoxy)(phenoxy)phosphoryl)-L-alaninate]	> 25	6.69	> 100	0.04	0.024	0.159
CCOC(=O)[C@H](C)NP(=O)(OC[C@@]1(CF)O[C@@H](c2ccc3c(N)ncnn23)[C@H](O)[C@@H]1O)Oc1ccccc1 (stereo partly drawn) [Example 13, ethyl ((((2R,3S,4R,5S)-5-(4-aminopyrrolo[2,1-f][1,2,4]triazin-7-yl)-2-(fluoromethyl)-3,4-dihydroxytetrahydrofuran-2-yl)methoxy)(phenoxy)phosphoryl)-L-alaninate]	> 25	> 10.2	> 89.4	0.274	0.844	0.487
C[C@H](NP(=O)(OC[C@@]1(CF)O[C@@H](c2ccc3c(N)ncnn23)[C@H](O)[C@@H]1O)Oc1ccccc1)C(=O)OC1CCCCC1 (stereo partly drawn) [Example 14, cyclohexyl ((((2R,3S,4R,5S)-5-(4-aminopyrrolo[2,1-f][1,2,4]triazin-7-yl)-2-(fluoromethyl)-3,4-dihydroxytetrahydrofuran-2-yl)methoxy)(phenoxy)phosphoryl)-L-alaninate]	> 25	> 7.76	> 100	0.165	0.187	0.205
CCC(=O)O[C@H]1[C@H](c2ccc3c(N)ncnn23)O[C@](CF)(CO[P@@](=O)(N[C@@H](C)C(=O)OC(C)C)Oc2ccccc2)[C@H]1OC(=O)CC [Example 22, (2R,3S,4S,5S)-5-(4-aminopyrrolo[2,1-f][1,2,4]triazin-7-yl)-2-(fluoromethyl)-2-((((S)-(((S)-1-isopropoxy-1-oxopropan-2-yl)amino)(phenoxy)phosphoryl)oxy)methyl) tetrahydrofuran-3,4-diyl dipropionate]	> 25	> 23.6	71.7	0.735	2.36	1.03
CC(C)OC(=O)[C@H](C)N[P@](=O)(OC[C@@]1(CF)O[C@@H](c2ccc3c(N)ncnn23)[C@H](OC(=O)C(C)C)[C@@H]1OC(=O)C(C)C)Oc1ccccc1 [Example 23, (2R,3S,4S,5S)-5-(4-aminopyrrolo[2,1-f][1,2,4]triazin-7-yl)-2-(fluoromethyl)-2-((((S)-(((S)-1-isopropoxy-1-oxopropan-2-yl)amino)(phenoxy)phosphoryl)oxy)methyl) tetrahydrofuran-3,4-diyl bis(2-methylpropanoate)]	> 23.2	10.9	26.3	0.387	4.32	1.8
CCCCOCCOC(=O)[C@H](C)NP(=O)(OC[C@@]1(CF)O[C@@H](c2ccc3c(N)ncnn23)[C@H](O)[C@@H]1O)Oc1ccccc1 (stereo partly drawn) [Example 42, 2-butoxyethyl ((((2R,3S,4R,5S)-5-(4-aminopyrrolo[2,1-f][1,2,4]triazin-7-yl)-2-(fluoromethyl)-3,4-dihydroxytetrahydrofuran-2-yl)methoxy)(phenoxy)phosphoryl)-L-alaninate]	21.1	5.33	> 100	0.258	0.86	0.667
COC(C)(C)COC(=O)[C@H](C)NP(=O)(OC[C@@]1(CF)O[C@@H](c2ccc3c(N)ncnn23)[C@H](O)[C@@H]1O)Oc1ccccc1 (stereo partly drawn) [Example 43, 2-methoxy-2-methylpropyl ((((2R,3S,4R,5S)-5-(4-aminopyrrolo[2,1-f][1,2,4]triazin-7-yl)-2-(fluoromethyl)-3,4-dihydroxytetrahydrofuran-2-yl)methoxy)(phenoxy)phosphoryl)-L-alaninate]	> 25	17.9	> 100	0.626	2.16	1.2
CCOCCOCCOC(=O)[C@H](C)NP(=O)(OC[C@@]1(CF)O[C@@H](c2ccc3c(N)ncnn23)[C@H](O)[C@@H]1O)Oc1ccccc1 (stereo partly drawn) [Example 45, 2-(2-ethoxyethoxy)ethyl ((((2R,3S,4R,5S)-5-(4-aminopyrrolo[2,1-f][1,2,4]triazin-7-yl)-2-(fluoromethyl)-3,4-dihydroxytetrahydrofuran-2-yl)methoxy)(phenoxy)phosphoryl)-L-alaninate]	> 25	> 25	> 100	> 5	21.8	4.58
